# Data taken from patent US20180168157A1, “ANTIMICROBIAL COMPOSITIONS COMPRISING FOOD APPROVED ANTIMICROBIALS AND ZINC PYRITHIONE” (Janssen Pharmaceutica NV, priority 2015, published 2018).
# How the values were obtained:
# Assay type in all cases: cell-based
# [1] = system: Saccharomyces cerevisiae CBS 8803; test: Poison plate assay (MIC and synergy index), Saccharomyces cerevisiae; conditions: ppm total active ingredient, half strength potato dextrose broth, 28° C., evaluation 7 days after inoculation
# Description: wherein: • QA is the concentration of compound A in ppm, acting alone, which produced an end point (e.g. MIC), • Qa is the concentration of compound A in ppm, in the mixture, which produced an end point (e.g. MIC), • QB is the concentration of compound B in ppm, acting alone, which produced an end point (e.g. MIC), • Qb is the concentration of compound B in ppm, in the mixture, which produced an end point (e.g. MIC).
# When the Synergy Index is greater than 1.0, antagonism is indicated. When the SI is equal to 1.0, additivity is indicated.
# [2] = system: Escherichia coli LMG 8063; test: Poison plate assay (MIC and synergy index), Escherichia coli; conditions: ppm total active ingredient, nutrient broth pH 6.8, 28° C., evaluation 7 days after inoculation
# Description: (§1) Experiment 1: Poison Plate Assay
# (§2) In the test combinations above, product A is component (I), i.e. zinc pyrithione, and product B is a component (II), i.e. either sodium sulfite (II-a) or lysozyme (II-b).
# (§3) Concentration series of total actives: a series of 24 concentrations increasing with steps of ⅓:0.27-0.35-0.47-0.63-0.84-1.13-1.50-2.00-2.67-3.56-4.75-6.33-8.44-11.25-15.00-20.00-26.70-35.60-47.46-63.28-84.38-112.50-150.00-200.00 ppm. • Culture medium: bacteria: nutrient broth (3 g beef extract and 5 g peptone in 1 liter deionised water, pH=6.8.) • Experimental set up: 96-well plates containing 300 μl pf inoculum plus 0.75 μl of a 400× concentrated stock solution of the test compounds per well. • Species of test organisms: Escherichia coli LMG 8063 • Staphylococcus aureus LMG 8195/ATCC 6538P • Inoculum: the nutrient medium is inoculated with an actively growing liquid culture of the test bacteria. • Culture conditions: 28° C., 70% relative humidity, incubation in darkness. • Evaluation: 7 days after inoculation. […]
# [3] = system: Staphylococcus aureus LMG 8195/ATCC 6538P; test: Poison plate assay (MIC and synergy index), Staphylococcus aureus; conditions: ppm total active ingredient, nutrient broth pH 6.8, 28° C., evaluation 7 days after inoculation
# Description: as §1, §2, §3
compound,measurement,setting,value
O=S([O-])O.[Na+] [sodium bisulfite],MIC-values in ppm (minimum inhibitory concentration),[1],267 ppm
O=S([O-])[O-].[Na+].[Na+] [sodium sulfite],MIC-values in ppm (minimum inhibitory concentration),[2],267 ppm
"[O-][n+]1ccccc1[S][Zn][S]c1cccc[n+]1[O-] [zinc pyrithione, bis(2-pyridylthio)zinc 1,1′dioxide]",MIC-values in ppm (minimum inhibitory concentration),[2],3.60 ppm
same,MIC-values in ppm (minimum inhibitory concentration),[3],2.00 ppm
same,MIC-values in ppm (minimum inhibitory concentration),[1],2.00 ppm
lysozyme,MIC-values in ppm (minimum inhibitory concentration),[3],267 ppm
